Measurements reported in patent US20170246129A1, “COMPOSITION USING GUANIDINE COMPOUND FOR SUPPRESSING TRANSFORMING GROWTH FACTOR (TGF)-beta” (Peking University Third Hospital, priority 2016, published 2017).
Structures can show the parent of a compound that is named as a salt. Where two headings read alike, the source gives them in different places. Each block holds one molecule with its values, some of them ahead of it.

Tests used:
[1] = system: TGFβ1 induced phosphorylated Smad3 (p-Smad3); experiment: Western blotting of TGFβ1 induced phosphorylated Smad3 in 3T3 cells; assay type: cell-based, mouse; settings: compound 1 mmol/L premixed with TGF-β1 (5 ng/mL) for 2 h, 3T3 cells treated 30 min, FIG. 9
Procedure: 2: Moroxydinehydrochloride (dissovled in ddH2O, 1 mmol/L); 3: Phenylbiguanide (dissolved in DMSO, 1 mmoL/L); 4: 1-(2,3-Dichlorophenyl) biguanide hydrochloride (dissolved in DMSO, 1 mmoL/L); 5: 1,3-Di(o-tolyl)guanidine (dissolved in DMSO, 1mmoL/L); 6: Buformin hydrochloride (dissolved in EtOH, 1 mmol/L). These compounds and TGF-β1 (5 ng/mL) were premixed for 2 h separately and then 3T3 cells were treated with the mixture for 30 min prior to sample collection. […] Bicinchoninic acid reagents were used to measure the protein concentration. Equal amounts of proteins were separated by SDS-PAGE and transferred to polyvinylidene difluoride membranes. The blots were immunoreacted with primary antibodies and secondary antibodies conjugated with horseradish peroxidase. […] GAPDH antibodies were purchased from Santa Cruz Biotechnology (Santa Cruz, Calif., USA). Protein bands were visualized by enhanced chemiluminescence detection and the intensity was quantified by use of Image-J software.

[2] = biological target: T1, [125I]-TGFβ1 binding to its receptor in 3T3 mouse fibroblasts (Homo sapiens, UniProt P01137); experiment: [125I]-TGFβ1 binding assay; settings: printed as log[IC50], 50 pM [125I]-TGFβ1, 4 h at 4° C., four independent experiments, read-out: log[IC50] of [125I]-TGFβ1 binding inhibition (converted)
T1 construct: endogenous in cells; host or cells: 3T3 mouse fibroblasts
T1 sequence (P01137 279-390 limits assumed): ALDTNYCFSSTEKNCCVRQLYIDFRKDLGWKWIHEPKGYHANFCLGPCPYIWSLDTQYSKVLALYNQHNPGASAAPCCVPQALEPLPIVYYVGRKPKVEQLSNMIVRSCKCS
Procedure: 3T3 mouse fibroblasts were seeded in a 24 well-plate and cultured in DMEM supplemented with 10% FBS and antibiotics (100 U/mL penicillin-streptomycin). […] After 4 h at 4° C., the medium was removed and cells were washed five times with ice-cold binding buffer (50 mM HEPES, 128 mM NaCl, 5 mM KCl, 5 mM MgSO4, and 1.2 mM CaCl2). The cells were then solubilized using binding buffer containing 1% Triton X-100 and the radioactivity was measured. Non-specific binding was determined in the presence of an excess (10 nM) of unlabeled TGFβ1.

TβRII-GFP on HeLa cells = experiment: Single-molecule fluorescence imaging (TIRFM) of TGF-β1-induced TβRII dimerization; assay type: cell-based; settings: TGF-β1 10 ng/mL, 15 min at 37° C., FIG. 2D
Procedure: In the previous study, individual green fluorescent protein (GFP)-tagged TβRII molecules were imaged on the cell membrane by total internal reflection fluorescence microscopy (TIRFM) to study the receptor activation.
Single molecule fluorescence imaging was performed with objective-type total internal reflection fluorescence microscopy (TIRFM) using an inverted Olympus IX71 microscope equipped with a total internal reflective fluorescence illuminator'a, 100X/1.45NA Plan Apochromat TIR objective and an intensified CCD (ICCD) camera (Pentamax EEV 512×512 FT, Roper Scientific). Hela cells were transfected with TβRII-GFP plasmid for 4 h, washed, and then imaged in the serum-free and phenol red-free MEM under the fluorescence microscopy. GFP was excited at 488-nm by an argon laser (Melles Griot, Carlsbad, Calif.). Movies of 200-300 frames were acquired for each sample at a frame rate of 10 Hz. […] To analyze single-molecule fluorescence intensity and the photobleaching steps, regions of interest for bleaching analysis were selected as followed. Firstly, the background fluorescence was subtracted from the movie acquired from the fixed cells using rolling ball method in Image J software (National Institutes of Health). […] Finally, time courses and the integrated fluorescence intensity of regions which were selected according to the method above were extracted for photobleaching analysis. […]

TGF-β1 = TGF-β1 (Homo sapiens, UniProt P01137); experiment: Surface plasmon resonance (SPR)-based assay; settings: Biacore T200, 25° C., TGF-β1 on CM5 chip, steady-state single site binding model
Sequence of TGF-β1 (P01137 279-390 limits assumed): as above
Procedure: Experiments were performed at 25° C. using a Biacore T200 and the data were analyzed using Biacore T200 evaluation software 2.0 (GE Healthcare, Stockholm, Sweden). […] The steady-state values were calculated from the sensorgrams and plotted against the concentrations. The data were fit to a single site binding model to calculate the KD.

TGF-β1/TβRII = biological target: T2, TGF-β1/TβRII (Homo sapiens, UniProt P01137); experiment: AFM single-molecule force spectroscopy of TGF-β1-TβRII binding on HeLa cells
T2 construct: expressed in transfected cells; host or cells: HeLa
T2 sequence (P01137 279-390 limits assumed): as above
Procedure: The present invention investigated the binding force and the binding probability between TGF-β1 and TβRII on live cells using AFM-based single-molecule force spectroscopy. TGF-β1-modified AFM tips (type: NP-10, Bruker, Santa Barbara, Calif., USA) were prepared as followed. The spring constants of the tips, calibrated by the thermal fluctuation method, were in the range of 0.025-0.045 N/m. The tips were first cleaned and hydroxized through the treatment with chloroform, HF acid, alkaline solution (NH4OH/H2O2/H2O) 1:1:5, v/v) and piranha solution (98% H2SO4/H2O2) 7:3, v/v), respectively, to generate Si-OH on the wafers. Then they were transferred to a solution of 1.0% (v/v) MPTMS in toluene, incubated for 2 h at room temperature, and rinsed thoroughly with toluene to be modified with —SH groups. […]
Hela cells were transfected with the TβRII-GFP plasmid for 24 h, and the force measurements were performed on a PicoSPM II system with a PicoScan 3000 controller and a large scanner (Agilent, Santa Clara, Calif., USA). The AFM scanner was mounted on an inverted fluorescence microscope (Olympus IX71, Japan). […] All of the force curves were measured with the contact mode at room temperature using a soft cantilever (0.06 N m-1). […] The force curves were recorded using PicoScan 5 software (Molecular Imaging, Tempe, Ariz., USA) and analyzed using a program in MATLAB (MathWorks Corp., Natick, Mass., USA.).

[3] = persons receiving the drug therapeutically, cited from earlier work

SMILES: Cl.N=C(NN)NN [1,3-Diaminoguanidine monohydrochloride]
effect on p-Smad3 induced by TGFβ1 [1]: no effect

SMILES: Cl.N=C(N)NC(=N)Nc1cccc(Cl)c1Cl [1-(2,3-Dichlorophenyl) biguanide hydrochloride]
effect on p-Smad3 induced by TGFβ1 [1]: no effect

SMILES: Cc1ccccc1NC(=N)Nc1ccccc1C [1,3-Di(o-tolyl)guanidine]
effect on p-Smad3 induced by TGFβ1 [1]: attenuate

SMILES: Cl.N=C(N=C(N)N)N1CCOCC1 [moroxydinehydrochloride]
effect on p-Smad3 induced by TGFβ1 [1]: no effect

SMILES: CCCCNC(=N)NC(=N)N [buformin hydrochloride, Buformin hydrochloride]
effect on p-Smad3 induced by TGFβ1 [1]: attenuate

IC50 [2]: 69.2 µM
Kd (TGF-β1): 15.9 µM
binding force of TGF-β1 with TβRII (TGF-β1/TβRII; 50 μM, control 49.5±1.3, P>0.05): 49.3±1.4 pN
binding probability of TGF-β1 and TβRII (TGF-β1/TβRII; metformin 50 μM, control 21.7±3.5%): 9.9±1.2%
SMILES: CN(C)C(=N)N=C(N)N [metformin, metformin hydrochloride]
percentage of TβRII dimers induced by TGF-β1 (TβRII-GFP on HeLa cells): inhibited the percentage of dimers induced by TGF-β1 in a dose-dependent manner
Blood or plasma concentrations [3]: 1 to 4 µg/mL
Blood or plasma concentrations ([3]; conversion of μg/mL): 6 to 24 µM
